Columns and labels:
FGFR2^WT = target: T1, FGFR2^WT (Homo sapiens, UniProt P21802); experiment: FGF2-induced ERK1/2 phosphorylation in HEK293 cells, FGFR2 WT; format: cell-based; settings: stable HEK293 FGFR2^WT cells; FGF2 0.5 ng/ml 5 min; average±sem, three experiments; read-out: IC50 value, inhibition of FGF2 induced ERK1/2 phosphorylation
T1 construct: expressed in transfected cells
Procedure: (§1) HEK293 cells were either transiently of stably transfected (using FuGENE 6, Roche) with hFGFR2IIIca or hFGFR2IIIca-Y328D cloned in pcDNA3 (Invitrogen). Stably transfected cells were grown in G418 (400 μg/ml) containing medium. Before stimulation, the cells were starved overnight in DMEM (0% serum), and pre-incubated with […] at the required concentration. The cells were subsequently stimulated with FGF2 (concentration between 0.5-10 ng/ml) for 5 min at 37° C. with or without SSR or SU5402 at 1 μM. After washing with ice-cold phosphate-buffered saline containing phosphatase inhibitors (Roche), cells were lysed in RIPA buffer (Tris 30 mM HCl pH 7.5, 150 mM NaCl, 1 mM EDTA, 1% triton-X, 0.5% w/v deoxycholate, containing phophatase and protease inhibitors as described by the manufacturer (Roche)). Cell lysates were centrifuged at 12,000 g for 10 min, and the supernatants were collected. Proteins were separated on Novex polyacrylamide gels (Invitrogen, Carlsbad, Calif.) and subsequently transferred onto Hybond ECL nitrocellulose membranes (Amersham Pharmacia). Following incubation with 5% non-fat milk powder in PBS, the membranes were incubated overnight at 4° C. with the following antibodies: phospho-ERK1/2 (CST:9101), phospho-FRS2 (CST:3861), phospho-PLCγ (CST:2821) and FGFR2 (F0300, Sigma).

FGFR2 = target: T2, FGFR2 (Homo sapiens, UniProt P21802); experiment: FGFR2 multimerization; format: biochemical
T2 construct: or the expression of the entire intact receptor in its native environment
T2 sequence (P21802 22-821): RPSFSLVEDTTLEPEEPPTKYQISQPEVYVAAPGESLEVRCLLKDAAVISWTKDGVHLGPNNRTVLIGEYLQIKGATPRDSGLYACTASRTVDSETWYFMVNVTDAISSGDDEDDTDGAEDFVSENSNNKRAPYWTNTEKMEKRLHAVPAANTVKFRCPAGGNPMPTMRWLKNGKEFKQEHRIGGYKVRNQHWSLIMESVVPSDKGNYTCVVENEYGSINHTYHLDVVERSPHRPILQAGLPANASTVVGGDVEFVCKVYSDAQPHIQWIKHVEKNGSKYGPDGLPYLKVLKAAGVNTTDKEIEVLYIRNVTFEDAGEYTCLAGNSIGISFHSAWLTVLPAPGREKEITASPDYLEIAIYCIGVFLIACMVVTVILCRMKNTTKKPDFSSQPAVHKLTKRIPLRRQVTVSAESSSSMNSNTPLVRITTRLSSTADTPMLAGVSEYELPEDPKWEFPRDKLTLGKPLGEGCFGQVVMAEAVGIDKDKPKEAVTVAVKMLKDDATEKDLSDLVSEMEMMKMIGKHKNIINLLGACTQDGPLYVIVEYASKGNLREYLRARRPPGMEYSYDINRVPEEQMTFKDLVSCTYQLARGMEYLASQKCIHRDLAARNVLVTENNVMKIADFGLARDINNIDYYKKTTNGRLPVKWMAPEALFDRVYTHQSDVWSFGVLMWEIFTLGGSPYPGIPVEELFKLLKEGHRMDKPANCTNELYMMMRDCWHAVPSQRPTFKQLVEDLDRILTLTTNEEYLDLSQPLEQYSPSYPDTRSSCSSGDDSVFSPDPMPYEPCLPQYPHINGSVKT

FGFR2^∂23-Y328D = experiment: FGF2-induced ERK1/2 phosphorylation in HEK293 cells, FGFR2 Y328D; format: cell-based, human; settings: Erk1/2 western blot densitometry IC50
Procedure: as §1

FGF2 [1] = target: T3, FGF2 (Homo sapiens, UniProt P09038); experiment: ITC or STD-NMR, FGF2; format: binding; design: FGF2 (amino acids 9-155); made in house
Procedure: The extracellular domain (ECD; amino acids: 39-358) of the human FGFR1 gene (P11362) was PCR amplified and cloned into E. coli vector pETTEV (with a N-terminal His-tag followed by a TEV protease cleavage site), using NdeI and BamHI restriction sites. For protein production, the resulting plasmid (pET FGFR1 D1D2D3) was transformed into E. coli BL21(DE3) (Novagene). Cells were grown at 37° C. until the OD600 reached 0.6 and recombinant protein production was induced by adding 1 mM IPTG (isopropyl-b-D-thiogalactopyranoside). After 4 hours induction, cells were harvested and stored at −80° C. until usage. The cell pellet (1 L culture) was thawed and resuspended in 50 ml buffer 1 (20 mM Tris/HCl, pH 7.5, 200 mM NaCl) containing lysozyme (2 mg), and 40 U benzonase (Merck). […] Complex formation was analyzed by size exclusion chromatography and subsequent analysis on SDS-PAGE.
All STD- and 1D-NMR experiments were carried out on a BRUKER three-channel DRX600 and on a BRUKER four-channel DRX800 spectrometer at the standard temperature of 298 K and were referenced to the internal standard 3-Trimethyl-2,2,3,3-tetradeuteropropionate-sodium salt (TSP). […] For protein ligand 1D STD NMR measurements spectra were recorded with 1 mM ligand SSR128129E (100 mM DMSO stock solution) and […] protein with weak 2s RF irradiation on separated protein methyl resonances. […]
Target sequence in this assay (P09038 142-288): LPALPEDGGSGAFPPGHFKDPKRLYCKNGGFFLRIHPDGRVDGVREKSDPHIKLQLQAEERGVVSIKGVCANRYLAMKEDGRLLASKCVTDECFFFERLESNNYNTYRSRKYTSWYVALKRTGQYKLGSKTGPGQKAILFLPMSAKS

FGF2 [2] = target: T3, FGF2; experiment: FGF2 dimerization; format: biochemical
Target sequence in this assay (P09038 134-288, species assumed): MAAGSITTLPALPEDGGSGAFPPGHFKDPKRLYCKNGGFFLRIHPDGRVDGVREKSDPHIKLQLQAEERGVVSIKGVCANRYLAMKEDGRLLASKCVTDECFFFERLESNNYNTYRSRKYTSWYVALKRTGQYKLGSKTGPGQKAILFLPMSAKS

FGFR4 = target: T4, FGFR4 (Homo sapiens, UniProt P22455); experiment: FGF2 binding to FGFR4 in intact cells; settings: receptor expressed in intact cells
T4 construct: expressed in transfected cells; host or cells: murine pre-B 300-19 cells
T4 sequence (P22455 22-802): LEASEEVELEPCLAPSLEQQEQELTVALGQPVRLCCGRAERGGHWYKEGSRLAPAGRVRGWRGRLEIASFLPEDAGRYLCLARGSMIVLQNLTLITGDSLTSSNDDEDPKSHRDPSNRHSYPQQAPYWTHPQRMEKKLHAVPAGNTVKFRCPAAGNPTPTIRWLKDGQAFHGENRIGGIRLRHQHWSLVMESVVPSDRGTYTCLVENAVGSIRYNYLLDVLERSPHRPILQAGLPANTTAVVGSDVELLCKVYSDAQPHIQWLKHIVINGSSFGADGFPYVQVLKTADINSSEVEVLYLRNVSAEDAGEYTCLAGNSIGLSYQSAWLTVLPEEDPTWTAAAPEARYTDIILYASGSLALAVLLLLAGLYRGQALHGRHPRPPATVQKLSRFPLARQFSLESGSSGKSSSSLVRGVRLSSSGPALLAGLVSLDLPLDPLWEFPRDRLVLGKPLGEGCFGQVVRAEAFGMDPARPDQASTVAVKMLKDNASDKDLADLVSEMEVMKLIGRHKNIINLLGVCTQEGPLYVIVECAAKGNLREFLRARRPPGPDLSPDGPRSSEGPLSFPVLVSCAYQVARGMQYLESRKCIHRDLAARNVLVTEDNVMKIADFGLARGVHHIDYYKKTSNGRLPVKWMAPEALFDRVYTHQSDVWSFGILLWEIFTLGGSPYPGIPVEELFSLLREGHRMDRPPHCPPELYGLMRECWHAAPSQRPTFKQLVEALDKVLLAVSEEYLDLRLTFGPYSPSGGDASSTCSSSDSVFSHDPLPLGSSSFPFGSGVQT

T1 sequence (P21802 22-821): as the sequence (P21802 22-821) above

COc1c(C)c(C(=O)c2ccc(N)c(C(=O)[O-])c2)n2ccccc12.[Na+] [SSR]
IC50 (FGFR2^WT): 28 ± 12 nM | FGFR2 dimerization (multimerization) (FGFR2): not able to inhibit | sensitivity to SSR inhibition, FGFR2-Y328D compared to FGFR2-WT (FGFR2^∂23-Y328D): about 5 times less sensitive | binding to FGF2 (FGF2 [1]): failed to bind | FGF2 dimerization (FGF2 [2]): not able to inhibit | binding of FGF2 to FGFR4 (FGFR4): failed to antagonize
